# Test results: patent publication US5731452A, “7-thiaprostaglandins and method of production thereof” (Teijin Limited, priority 1994, dated 1998)
# System: rat platelet
# Experiment: Rat platelet aggregation inhibiting activity
# Type: cell-based
# Conditions: rat platelet rich plasma; adenosine 2-phosphate induced; 37° C., one minute
# Description: (§1) Wistar rats (males, approximately 400 g) were made to fast for one day, the entire blood was removed from the chest artery under anesthesia by ether, then a 1/10 volume of 3.8% aqueous solution of sodium citrate was added and immediately mixed in. The solution was centrifuged at 1000 rpm for 10 minutes, then the upper layer was used as the platelet rich plasma. The lower layer was centrifuged at 3000 rpm for 10 minutes and the upper layer of that was used as the platelet poor plasma. The platelet rich plasma was diluted by the platelet poor plasma to give a number of platelets of 3.5×10^8 /mm^3. This was used for the measurement. Note that the measurement of the platelets was performed using an automatic blood cell counter MEK-4500 (Nihon Koden). The measurement of the platelet aggregation was performed by measuring the turbidity using an NBS HEMA TRACER 801 (M.C. Medical). 90 μl of the platelet solution was inserted in a cuvette, then 5 μl each of the test compounds was added to give the target final concentration. The result was heated for one minute at 37° C., then 5 μl of a 100 μM aqueous solution of adenosine 2-phosphate (M.C. Medical) was added to induce platelet aggregation. The aggregation inhibiting activity was found from the following formula.
# (§2) Aggregation inhibiting rate (%)={1-(maximum change of turbidity at time of
# (§3) addition of drug)/(maximum change of turbidity at time of non-addition of
# (§4) Further, the concentration of the compound giving 50% inhibition was used as the IC50.
row,IC50 [nM],SMILES
1,52,CCCCC(C)C[C@H](O)/C=C/[C@@H]1C(SCCCCCC(=O)OC)=C(OC(C)=O)C[C@H]1O (some centres unmarked)
2,500,CCCCC(C)C[C@H](O)/C=C/[C@@H]1C(SCCCCCC(=O)OC)=C(OC(=O)C(C)C)C[C@H]1O (some centres unmarked)
3,1280,CCCCC(C)C[C@H](O)/C=C/[C@@H]1C(SCCCCCC(=O)OC)=C(OC(=O)C(C)(C)C)C[C@H]1O (some centres unmarked)
4,221,CCCCOC(=O)CCCCCSC1=C(OC(=O)CCC)C[C@@H](O)[C@@H]1/C=C/[C@@H](O)CC(C)CCCC (some centres unmarked)
5,629,CCCCC[C@H](O)/C=C/[C@@H]1C(SCCCCCC(=O)OC)=C(OC(=O)CCC)C[C@H]1O
6,380,CCCC(=O)OC1=C(SCCCCCC(=O)OC)[C@@H](/C=C/C(O)CC(C)C)[C@H](O)C1 (some centres unmarked)
7,129,CCCCC(C)C[C@H](O)/C=C/[C@@H]1C(SCCCCCC(=O)OC)=C(OC(=O)CCC)C[C@H]1O (some centres unmarked) [drawing 170]
8,284,CCCC(=O)OC1=C(SCCCCCC(=O)OC)[C@@H](/C=C/[C@@H](O)C2CCCC2)[C@H](O)C1 [drawing 176]
9,73,CCCC(=O)OC1=C(SCCCCCC(=O)OC)[C@@H](/C=C/[C@@H](O)C2CCCCC2)[C@H](O)C1 [drawing 177]
10,700,CCCCC(C)C[C@H](O)/C=C/[C@@H]1C(SCCCCCC(=O)OC)=C(OC(=O)c2ccccc2)C[C@H]1O (some centres unmarked) [drawing 179]
11,290,CCCC(=O)OC1=C(SCCCCCC(=O)OC)[C@@H](/C=C/C(O)CCCc2ccccc2)[C@H](O)C1 (some centres unmarked) [drawing 180]
12,300,CCCCC[C@H](O)/C=C/[C@@H]1C(SCCCCCC(=O)O)=C(OC(=O)CCC)C[C@H]1O [drawing 181]

# System: Rat Carotid Artery
# Experiment: Suppressing thickening of intima after trauma to rat carotid artery endothelium by balloon catheter
# Type: in vivo, Wistar rat
# Conditions: 3.2 μg/rat/hr s.c.
# Description: The test was performed in the following manner in accordance with the method of Clowes et al. (Lab. Invest., 49, 206, 1983). Male Wistar rats of a body weight of 300 to 350 g were used. The neck of each rat was opened under anesthesia by sodium pentobarbitol, then a balloon catheter (Fogarty, 2F) was inserted from the right external carotid artery until the starting portion of the common carotid artery. The balloon was expanded by saline to an extent causing a light resistance, then the catheter was pulled out in that state up to the carotid artery to give trauma to the intima. This procedure was repeated three times, then the catheter was withdrawn and the external carotid artery was ligated. After 14 days, the chest was opened under anesthesia by diethyl ether, refluxing and immobilization were performed from the aorti arch by a Karnoa solution (methanol:chloroform:acetic acid=6:3:1), then the right common carotid artery was excised and immobilized by neutral formalin solution. The immobilized carotid artery was dyed by Elastica van Gieson dye, then the areas of the media and thickened portion of the intima were measured by an image resolution device (LUZEX2D).
# The test compound began to be administered subcutaneously at a rate of 3.2 μg/rat/hr using a miniosmotic pump buried in the back of the rat from three days before the surgery and was continued until 11 days after the surgery. The activity of the test compound in suppressing intima thickening was found from the following formula.
row,SMILES,thickening of the neointima of the carotid artery (in words)
1,"CCCC(=O)OC1=C(SCCCCCC(=O)OC)[C@@H](/C=C/[C@@H](O)C2CCCCC2)[C@H](O)C1 [Example 17, methyl(11R,12S,13E,15S)-9-butyryloxy-11,15-dihydroxy-15-cyclohexyl-16,17,18,19,20-pentanor-7-thiaprosta-8,13-dienoate]",suppresses the thickening of the neointima of the carotid artery

# Same assay, conditions: 3.2 μg/rat/hr s.c. miniosmotic pump, 3 days before to 11 days after surgery, day 14, average ± standard error, * p < 0.05 vs control
row,SMILES,Intima (area) [mm^2]
1,"CCCC(=O)OC1=C(SCCCCCC(=O)OC)[C@@H](/C=C/[C@@H](O)C2CCCCC2)[C@H](O)C1 [Example 17, methyl(11R,12S,13E,15S)-9-butyryloxy-11,15-dihydroxy-15-cyclohexyl-16,17,18,19,20-pentanor-7-thiaprosta-8,13-dienoate]",0.167

# Same assay, conditions: 3.2 μg/rat/hr s.c. miniosmotic pump, day 14, average ± standard error
row,SMILES,Media (area) [mm^2]
1,"CCCC(=O)OC1=C(SCCCCCC(=O)OC)[C@@H](/C=C/[C@@H](O)C2CCCCC2)[C@H](O)C1 [Example 17, methyl(11R,12S,13E,15S)-9-butyryloxy-11,15-dihydroxy-15-cyclohexyl-16,17,18,19,20-pentanor-7-thiaprosta-8,13-dienoate]",0.211

# Same assay, conditions: 3.2 μg/rat/hr s.c. miniosmotic pump, day 14, average ± standard error, * p < 0.05 vs control
row,SMILES,Intima/Media
1,"CCCC(=O)OC1=C(SCCCCCC(=O)OC)[C@@H](/C=C/[C@@H](O)C2CCCCC2)[C@H](O)C1 [Example 17, methyl(11R,12S,13E,15S)-9-butyryloxy-11,15-dihydroxy-15-cyclohexyl-16,17,18,19,20-pentanor-7-thiaprosta-8,13-dienoate]",0.784

# Same assay, conditions: (1-T/C)×100 of Intima/Media, 3.2 μg/rat/hr s.c.
row,SMILES,Suppression rate (intima thickening) [%]
1,"CCCC(=O)OC1=C(SCCCCCC(=O)OC)[C@@H](/C=C/[C@@H](O)C2CCCCC2)[C@H](O)C1 [Example 17, methyl(11R,12S,13E,15S)-9-butyryloxy-11,15-dihydroxy-15-cyclohexyl-16,17,18,19,20-pentanor-7-thiaprosta-8,13-dienoate]",37.5

# System: cell migration induced by MCP-1 in human promonocytic leukemia cell line, THP-1
# Experiment: Activity for inhibiting cell migration induced by MCP-1 (THP-1 cells)
# Type: cell-based
# Conditions: 20 ng/ml recombinant human MCP-1, 37° C., two hours
# Description: The cell migration induced by the monocyte chemoattractant protein MCP-1/MCAF was measured for the purpose of investigating the activity of the tested compounds shown in Table 1 in inhibiting cell migration by the following manner in accordance with the method of Falk et al. (J. Immunol. Methods, 33, 239-247 (1980)) using human promonocytic leukemia cell line, THP-1 (ATCC TIB203). That is, THP-1 cells diluted to 2×10^6 /ml by 10% fetal calf serum: FCS-containing RPMI-1640 medium (made by Flow Laboratories) were added to the upper chamber (200 μl) of the 96-well microchemotaxis chamber (made by Neuroprobe Inc.) while recombinant human MCP-1 (made by Peprotech Co.) diluted by the same medium to a final concentration of 20 ng/ml was added to the bottom chamber (35 μl). A polycarbonate filter (pore size of 5 μm, PVP-free, made by Neuroprobe Co) was affixed between the two. Incubation was performed at 37° C. in the presence of 5% CO2 for two hours. The filter was taken out, then the cells migrating to the bottom surface of the filter were fixed and stained by a Diff Quick solution (made by International Reagents Co.), then were measured by a plate reader (made by Molecular Device Co.) at a measurement wavelength of 550 nm. The mean value of three wells was determined and used as the indicator of the number of the migrating cells. At this time, the text compounds were added at various concentrations along with the THP-1 cells to the top chambers and the activity in inhibiting cell migration was determined. The percent of inhibition of cell migration was found by dividing the {(number of migrating cells caused by the MCP-1 added to the bottom chamber in the case of the test compound being added to the top chamber)--(number of migrating cells in the case of no test compound being added to the top chamber and no MCP-1 being added to the bottom chamber)} by the {(number of migrating cells caused by the MCP-1 added to the bottom chamber in the case of no test compound being added to the top chamber)--(number of migrating cells in the case of no test compound being added to the top chamber and no MCP-1 being added to the bottom chamber)}.
row,IC50 [nM],SMILES
1,1.2,CCCC(=O)OC1=C(SCCCCCC(=O)OC)[C@@H](/C=C/C(O)Cc2cccc(C)c2)[C@H](O)C1 (some centres unmarked) [drawing 154]
2,8,CCCC(=O)OC1=C(SCCCCCC(=O)OC)[C@@H](/C=C/C(O)Cc2cccc(Cl)c2)[C@H](O)C1 (some centres unmarked) [drawing 155]
3,0.4,CCCC(=O)OC1=C(SCCCCCC(=O)OC)[C@@H](/C=C/C(O)Cc2cccc(Cl)c2)[C@H](O)C1 (some centres unmarked) [drawing 156]
4,33,CCCC(=O)OC1=C(SCCCCCC(=O)OC)[C@@H](/C=C/C(O)Cc2cccc(OC)c2)[C@H](O)C1 (some centres unmarked) [drawing 157]
5,2.3,CCCC(=O)OC1=C(SCCCCCC(=O)OC)[C@@H](/C=C/C(O)Cc2cccc(OC)c2)[C@H](O)C1 (some centres unmarked) [drawing 158]
6,230,CCCC(=O)OC1=C(SCCCCCC(=O)OC)[C@@H](/C=C/C(O)Cc2cccc(C(=O)OC)c2)[C@H](O)C1 (some centres unmarked) [drawing 159]
7,2.3,CCCC(=O)OC1=C(SCCCCCC(=O)OC)[C@@H](/C=C/C(O)Cc2cccc(C(=O)OC)c2)[C@H](O)C1 (some centres unmarked) [drawing 160]
8,190,CCCC(=O)OC1=C(SCCCCCC(=O)OC)[C@@H](/C=C/C(O)Cc2ccccc2C)[C@H](O)C1 (some centres unmarked) [drawing 161]
9,4.4,CCCC(=O)OC1=C(SCCCCCC(=O)OC)[C@@H](/C=C/C(O)Cc2ccccc2C)[C@H](O)C1 (some centres unmarked) [drawing 162]
10,< 100,CCCC(=O)OC1=C(SCCCCCC(=O)OC)[C@@H](/C=C/C(O)Cc2ccc([N+](=O)[O-])cc2)[C@H](O)C1 (some centres unmarked) [drawing 163]
11,3.6,CCCC(=O)OC1=C(SCCCCCC(=O)OC)[C@@H](/C=C/C(O)Cc2ccc([N+](=O)[O-])cc2)[C@H](O)C1 (some centres unmarked) [drawing 164]
12,< 100,CCCC(=O)OC1=C(SCCCCCC(=O)OC)[C@@H](/C=C/C(O)Cc2ccc(Cl)cc2)[C@H](O)C1 (some centres unmarked) [drawing 165]
13,< 1,CCCC(=O)OC1=C(SCCCCCC(=O)OC)[C@@H](/C=C/C(O)Cc2ccc(Cl)cc2)[C@H](O)C1 (some centres unmarked) [drawing 166]
14,4000,CCCC(=O)OC1=C(CCCCCCC(=O)OC)[C@@H](/C=C/C(O)Cc2ccccc2)[C@H](O)C1 (some centres unmarked) [drawing 167]
15,5,CCCC(=O)OC1=C(CCCCCCC(=O)OC)[C@@H](/C=C/C(O)Cc2ccccc2)[C@H](O)C1 (some centres unmarked) [drawing 168]

# System: human platelet
# Experiment: Human platelet aggregation inhibiting activity
# Type: cell-based
# Conditions: 5 min, human plasma, adenosine 2-phosphate induced, 5 minutes at 37° C.
# Description: as §1, §2, §3, §4
# 50 ml portions of venous blood supplied from healthy human volunteers were used to prepare the platelet rich plasma and the platelet poor plasma in the same way as above. The measurement of the platelet aggregation was performed in the same way as above. However, unlike with the measurement of the rat platelet aggregation inhibiting activity, the test compound was added to the platelet poor plasma in advance and warmed for 5 minutes at 37° C., then the platelet rich plasma was added to give a number of platelets of 3.5×10^8 /mm^3. At the same time, 5 μl of 100 μM an aqueous solution of adenosine 2-phosphate (M.C. Medical) was added to induce platelet aggregation. The aggregation inhibiting activity was calculated in the same way as mentioned above.
row,IC50 [nM],SMILES
1,120,CCCC(=O)OC1=C(SCCCCCC(=O)OC)[C@@H](/C=C/[C@@H](O)C2CCCCC2)[C@H](O)C1 [drawing 182]
2,58,CCCCC(C)C[C@H](O)/C=C/[C@@H]1C(SCCCCCC(=O)OC)=C(OC(=O)CCC)C[C@H]1O (some centres unmarked) [drawing 183]
3,50,CCCC(=O)OC1=C(SCCCCCC(=O)OC)[C@@H](/C=C/C(O)Cc2ccccc2)[C@H](O)C1 (some centres unmarked) [drawing 184]
4,49,CCCC(=O)OC1=C(SCCCCCC(=O)OC)[C@@H](/C=C/C(O)[C@H](C)c2ccccc2)[C@H](O)C1 (some centres unmarked) [drawing 185]
5,105,CCCC(=O)OC1=C(SCCCCCC(=O)OC)[C@@H](/C=C/C(O)C(C)c2ccccc2)[C@H](O)C1 (some centres unmarked) [drawing 186]
6,59,CCCCC(C)C[C@H](O)/C=C/[C@@H]1C(SCCCOCC(=O)OC)=C(OC(=O)CCC)C[C@H]1O (some centres unmarked) [drawing 187]
